Measurements from patent US20220167645A1, “METHODS OF IMPROVING FISH FEED CONVERSION RATE AND SURVIVAL” (AQUINOVO LTD., priority 2019, published 2022).
Numbered stars: 1 amine (or outer) side, 2 acyl side, 3 side chain; on linkers, the order of the positions; unused ones are H or OH. Square brackets hold non-standard residues; d marks the D form. Suc = O=C(CCC(=O)[*:2])[*:1]; NMeV = CN[C@H](C(=O)O)C(C)C; βAla = NCCC(=O)O

Assays:
Tilapia fish [1] = test: Experiment #3: tilapia fed AN6-coated feed, treatment schedules 1 to 8 (survival, weight, length, size distribution, FCR); assay type: in vivo; settings: 10 mg AN6/Kg feed from 10 dph for 90 days; D279; compared to control
Tilapia fish [2] = test: Feed conversion rate (FCR) calculated over experiments #1, #2, #3; assay type: in vivo
Description: In order to determine the efficiency of feed conversion into fish substance in experiments (#1, #2, #3), FCR values which reflect the amount of feed needed to grow a kilogram fish, were calculated for each period and for the entire fish growth period. In order to determine the amount of consumed feed, the amount of feed provided was measured daily for each tank and the leftovers were collected, weighted and subtracted from the total amount of feed. Dead fish were removed every day before each feeding and then counted and weighed for accurate calculation of feed intake and FCR. It is to be noted that high mortality can still influence FCR values since feed eaten by fish that have later died cannot be subtracted from the total feed consumed and on the other hand periodic total fish weight gained is underestimated (dead fish are not included). Three FCR values were calculated according to the following formulas:
Specifically, improved FCR is observed 30 to 90 days after treatment initiation and can last at least 100 days after treatment stopped.

In the case of “Succ-Asp-Ser- D-Trp -N(Me)Val-βAla-Leu-Met-NH2 (Suc-DS[dW][NMeV][βAla]LM-NH2; SMILES CSCC[C@H](NC(=O)[C@H](CC(C)C)NC(=O)CCNC(=O)[C@H](C(C)C)N(C)C(=O)[C@@H](Cc1c[nH]c2ccccc12)NC(=O)[C@H](CO)NC(=O)[C@H](CC(=O)O)NC(=O)CCC(=O)O)C(N)=O) [AN6]”, the “increase in average fish weight” value (Tilapia fish [1]) is reported as “+3.89%”, the FCR-growth relationship (Tilapia fish [2]; 5, 10 mg and 30 mg AN6/Kg feed in other cases (experiments #2 and #3), with decrease in feed intake) is reported as “improved FCR which did not coincide with improved growth” and the “FCR in adult fish” value (Tilapia fish [2]; all AN6 peptide treatments, FIGS. 5A, 5B, 10, 11, 12) is reported as “significantly improves FCR”. The “duration of improved FCR after treatment stopped” value (Tilapia fish [2]; in vivo) was “at least 100 days”.
